Columns and labels:
Format in all cases: in vivo
ob/ob mice = test: Blood glucose level of normally fed ob/ob obese diabetic mice, daily treatment; conditions: 4.5-mg/kg s.c. once daily
From the text: Adult female leptin-deficient ob/ob obese diabetic inbred specified pathogen free (SPF) hygienic category mice from Charles River VRF1 were used for these experiments. The mice weighed 32-36-g at arrival. The ob/ob obese mouse is an extensively used animal model for the study of non-insulin-dependent-diabetes mellitus (NIDDM). The mutation was propagated in the C57BL/6J (BL/6) inbred strain. Homozygous obese (ob/ob) animals developed hyperglycemia due to insulin resistance, hyperinsulinemia (to compensate for reduced insulin action), and obesity. In these animals gluconeogenesis is enhanced despite their hyperinsulinemic state. The animals were kept in macrolon cages at 22-24° C. and 50-60% humidity, with lighting regimen of 12/12 h light dark. They had free access to tap water and were fed a sterilized standard diet (Charles River VRF1, autoclavable). The animals were cared for according to the “Guiding Principles for the Care and Use for Animals” based upon the Helsinki declaration. The ob/ob mice gained weight rapidly and developed a marked obesity by 5-6 weeks of age. […] When arrived they were 5 weeks old (when the experiment was performed with CCcompound1) or 4.5 weeks old (when the experiment was performed with CCcompound3 and CCcompound19). The treatments started 8 days later in the experiment performed with CCcompound1 and 10 days later in the experiment performed with CCcompound3 and CCcompound19. Experimental groups selected from ob/ob mice were injected subcutaneously (s.c.) at regular intervals once daily for 14 days with CCcompound1 or an analog (CCcompound3 or CCcompound19) each at the dose of 4.5-mg per kg. Control groups were also selected from ob/ob mice that remained untreated during the entire length of the experiment. In the first experiment, for which the data is presented in TABLE 11, blood samples were taken either 45 min or 6 hours after treatments with CCcompound1. In the second experiment, for which the data is presented in TABLE 12, blood samples were taken 45 min after treatments with the analogs of CCcompound1. Blood glucose was determined with the Fast Glucose C test. Both the untreated and CC compound-treated groups included 5 animals. The data are the mean±std. dev.

Wistar rats = test: Glucose tolerance test in starved rats
Protocol: Male Wistar rats weighing 240-270-g were divided into 3 groups, each group consisting of 6 or 7 animals. To ensure standard conditions animals were starved for 14 hours before the start of the experiment. CCcompound1 and CCcompound3 were injected (i.p.) 30 min prior to injecting 3-g/kg of glucose (i.p.). Blood sugar values of the experimental animals were measured with the Fast Glucose C-test; blood samples were taken from the tail. The data are the mean±std. dev. of 6-7 determinations, i.e. one determination with each of the 6-7 animals in the respective groups.

[1] = tested on: BDF1 (C57/BL/6 female×DBA/2 male) mice; test: Glucose tolerance test with BDF1 mice, CCcompound1 and sub-optimal insulin; conditions: CCcompound1 4.5-mg/kg i.p. −15 min and/or insulin 0.02 IU −10 min
Protocol: In this experiment again, a sub-optimal dose of insulin was used to probe if CCcompound1 can enhance the effect of insulin on blood glucose. This time first generation hybrid BDF1 (C57/BL/6 female×DBA/2 male) adult (10-12 weeks old) male mice weighing 28-30-g and fasted for 14 hours before i.p. glucose administration (3-g/kg) were used. These mice were […] than mice in the previous experiment described under Example 5. None of the animals received any food during the experiment other than glucose. The animals received i.p. injections of 4.5-mg/kg of CCcompound1 and 0.02 IU of insulin 15 min and 10 min prior to glucose administration. Blood samples were taken and glucose concentrations in whole blood samples determined as described earlier. Each group included six animals. The data are the mean±std. dev. of 6 determinations, i.e. one determination with each of the six animals.

C57/BL/6 mice = test: Blood glucose level in normal (non-diabetic) mice without glucose challenge; conditions: food deprived 2 h
Protocol: Female C57/BL/6 mice (25-27-g body weight) were deprived of food for 2 hours and then injected with 4.5-mg/kg of CCcompound1. Blood samples for glucose measurements were taken from the eyes (canthus) just before the administration of CCcompound1 (0 min) as well as 30 min and 120 min after the administration of CCcompound1. Glucose concentrations in whole blood samples were immediately measured with the Fast Glucose C test. The data are the mean±std.dev. of 5 determinations, i.e. one determination with each of the 5 animals. […] In this experiment, the period of food deprivation was short enough that compensatory mechanisms could maintain the blood glucose level near the normal 5-mM value. The condition employed also reflects the human eating habits, because normally there is at least a 2 hours interval between meals and snacks. Thus, with normal subjects under normal conditions, CC compounds are not expected to appreciably change the physiological level of blood glucose level that is about 5-mM on average.

`Cc1c(OCC(O)C[N+](C)(C)C)cc2c(=O)c3ccccc3sc2c1C.[Cl-]` (stereo not drawn) [CCcompound 1, [3-(3,4-Dimethyl-9-oxo-9H-thioxanthen-2-yloxy)-2-hydroxypropyl]trimethyl-ammonium chloride] gave a Glucose level (ob/ob mice; 45 min after treatment, day 1) of 6.2 ± 0.4 mM, a Glucose level (ob/ob mice; 45 min after treatment, day 4) of 7.4 ± 0.3 mM and a Glucose level (ob/ob mice; 45 min after treatment, day 7) of 8.4 ± 0.2 mM. The Glucose level (ob/ob mice; 45 min after treatment, day 11) was 9.2 ± 0.3 mM, the Glucose level (ob/ob mice; 45 min after treatment, day 14) was 10.2 ± 0.3 mM and the Glucose level (ob/ob mice; 6 hours after treatment, day 4) was 11.3 ± 0.7 mM. It also gave a Glucose level (ob/ob mice; 6 hours after treatment, day 7) of 13.8 ± 0.4 mM, a Glucose level (ob/ob mice; 6 hours after treatment, day 11) of 15.7 ± 0.4 mM and a Glucose level (ob/ob mice; 6 hours after treatment, day 14) of 17.5 ± 0.4 mM. It also gave a Glucose level (ob/ob mice; blood 6 hours after treatment, day 1) of 9.3 ± 0.4 mM, a Blood glucose (Wistar rats; rats starved 14 h, i.p. 30 min prior to glucose 3-g/kg i.p., 0 min) of 5.03 ± 0.44 mM and a Blood glucose (Wistar rats; rats, i.p. 30 min prior to glucose, 30 min) of 9.21 ± 0.45 mM. The Blood glucose (Wistar rats; rats, i.p. 30 min prior to glucose, 60 min) was 5.73 ± 0.39 mM, the Blood glucose (Wistar rats; rats, i.p. 30 min prior to glucose, 90 min) was 5.11 ± 0.42 mM and the Blood glucose (Wistar rats; rats, i.p. 30 min prior to glucose, 120 min) was 5.37 ± 0.36 mM. The Blood glucose ([1]; 0 min) was 3.1 ± 0.2 mM, the Blood glucose ([1]; 30 min) was 4.8 ± 0.3 mM and the Blood glucose ([1]; 60 min) was 3.5 ± 0.2 mM. The Blood glucose (C57/BL/6 mice; 0 min, just before 4.5-mg/kg) was 5.1 ± 0.5 mM, the Blood glucose (C57/BL/6 mice; 30 min after 4.5-mg/kg) was 4.9 ± 0.4 mM and the Blood glucose (C57/BL/6 mice; 120 min after 4.5-mg/kg) was 4.9 ± 0.6 mM.

Reference: patent publication US20090317372A1, “SMALL MOLECULES FOR THE REDUCTION OF HIGH BLOOD GLUCOSE LEVEL” (priority 2008, published 2009)
